Measured values reported in patent publication US6916915B1, “Stressor regulated genes” (Duke University, priority 1998, dated 2005).

Tested on: C. elegans
Test: Reverse-Northern dot-blot analysis of steady-state mRNA levels after cadmium exposure
Format: in vivo, Caenorhabditis elegans
Conditions: for Fold-change in mRNA levels following cadmium exposure, DDRT25: clone DDRT25; for Fold-change in mRNA levels following cadmium exposure, DDRT26: clone DDRT26; for Fold-change in mRNA levels following cadmium exposure, DDRT28: clone DDRT28; for Fold-change in mRNA levels following cadmium exposure, DDRT29: clone DDRT29; for Fold-change in mRNA levels following cadmium exposure, DDRT30: clone DDRT30; for Fold-change in mRNA levels following cadmium exposure, DDRT32: clone DDRT32; for Fold-change in mRNA levels following cadmium exposure, DDRT33D: clone DDRT33D; for Fold-change in mRNA levels following cadmium exposure, DDRT33U: clone DDRT33U; for Fold-change in mRNA levels following cadmium exposure, DDRT34: clone DDRT34; for Fold-change in mRNA levels following cadmium exposure, DDRT35: clone DDRT35; for Fold-change in mRNA levels following cadmium exposure, DDRT40: clone DDRT40; for Fold-change in mRNA levels following cadmium exposure, DDRT41: clone DDRT41; for Fold-change in mRNA levels following cadmium exposure, DDRT48: clone DDRT48; for Fold-change in mRNA levels following cadmium exposure, DDRT50: clone DDRT50; for Fold-change in mRNA levels following cadmium exposure, VL9: clone VL9; for Fold-change in mRNA levels following cadmium exposure, VL11: clone VL11; for Fold-change in mRNA levels following cadmium exposure, VL19: clone VL19; for Fold-change in mRNA levels following cadmium exposure, VL20: clone VL20; for Fold-change in mRNA levels following cadmium exposure, VL21: clone VL21
Description: Growth and isolation of C. elegans—The N2 strain of C. elegans was grown in liquid S medium (0.1M NaCl, 50 mM potassium phosphate, pH 6.0, 5 μg/ml cholesterol, 10 mM potassium citrate, 3 mM CaCl2, 3 mM MgCl2, 50 μM EDTA, 25 μM FeSO4, 10 μM MnCl2, 10 μM ZnSO4 and 1 μM CuSO4) using E. coli OP50 as a food source (Brenner, S. (1974) Genetics 77, 71-94). In experiments where nematodes were exposed to cadmium, the medium was supplemented with 100 μM CdCl2 (Freedman, J. H. et al. (1993) J. Biol. Chem. 268, 2554-2564). C. elegans were grown in the presence of metal for 8 h or 24 h at ˜20° C. Nematodes were then collected following centrifugation at 800×g for 5 min. Pellets were suspended in 5 mM NaCl containing 35% sucrose (final concentration) and viable nematodes were collected from the top of the solution following centrifugation at 1000×g for 5 min at 4° C. Nematodes were then washed three times by suspension in M9 buffer (22 mM KH2PO4, 42 mM Na2HPO4, 85 mM NaCl, 1 mM MgSO4) followed by sedimentation at 800×g. Washed nematode pellets were finally suspended in a small volume of M9 buffer, rapidly frozen in liquid nitrogen and stored at −80° C.
RNA isolation—Total RNA was isolated from mix-stage populations of C. elegans exposed to 100 μM CdCl2 for 8 h and 24 h and control, non-exposed nematodes. Frozen worms were first ground into a fine powder using a liquid nitrogen-cooled mortar and pestle. Powdered C. elegans (200 mg) were then homogenized in 2 ml of TRIzol (GIBCO/BRL). RNA was then collected from the aqueous phase following the addition of chloroform, precipitated by adding isopropyl alcohol and then air-dried. The dried RNA pellet was then dissolved in diethyl pyrocarbonate (DEPC)-treated water. For some experiments, poly(A^+) RNA was subsequently isolated using the Poly(A) Tract System following manufacturer's instructions (Promega).
Reverse-Northern dot-blot analysis—Changes in the steady-state levels of differentially expressed mRNAs in C. elegans following cadmium-exposure were also determined by reverse-Northern dot-blot analysis by the modified procedure of Zhang et al. (Cummins, C. et al. (1988) Mol. Cell. Biol 8, 5334-5349). Briefly, differentially expressed cDNAs that were previously cloned into pGEM-T were amplified using primers that anneal to the T7 and SP6 RNA polymerase binding sites, which flank the cDNA insert. cDNAs were amplified and subsequently purified using a PCR-spin column (QIAGEN). Approximately 100 ng of each amplified cDNA were denatured by mixing with 0.1N NaOH (final concentration) and incubating at 100° C. for 5 min. The solution was neutralized following the addition of 3×SSC (final concentration) and then the volume adjusted to 700 μl with dH2O. 200-μl of each sample was applied to one of three Nytran membranes in a Bio-Dot microfiltration apparatus (BioRad). Membranes were then baked for 30 min at 80° C. under vacuum. As positive and loading controls 100 ng of mtl-1 cDNA and myosin light chain DNA were also applied to each membrane, respectively.
Three pools of single-stranded ^32P-labeled cDNA probes were prepared from poly(A^+) RNA isolated from control, 8 h and 24 h cadmium-treated nematodes. cDNAs were generated from a mixture of mRNAs in a 25 μl reverse transcriptase reactions which contained 2 μg poly(A^+) RNA, 1 μg oligo (dT)18 primer, reverse transcriptase buffer, 800 μM DATP, dGTP and dTTP, 4.5 μM dCTP, 100 μCi [α-^32P]dCTP (3000 Ci/mmol), 20 units RNase inhibitor and 200 units Moloney murine leukemia virus reverse transcriptase. The reaction mixture was incubated at 37° C. for 1 h, then at 95° C. for 5 min to terminate the reaction. Unincorporated nucleotides were separated from the labeled cDNAs by using a G-25 spin column (Boehringer Mannheim). Equal amounts (5×10^6 cpm/ml) of each radioactive cDNA mixture were heat-denatured and then hybridized separately to one of the three membranes at 42° C. for 16 h in hybridization buffer. […]

[1] = 8 hours, 100 μM CdCl2, relative to non-exposed, normalized to myosin light chain mRNA
[2] = 24 hours, 100 μM CdCl2, relative to non-exposed, normalized to myosin light chain mRNA

In the case of `[Cl][Cd][Cl]` [cadmium, CdCl2], the “Fold-change in mRNA levels following cadmium exposure, DDRT23” value (clone DDRT23, 24 hours, 100 μM CdCl2, relative to non-exposed, normalized to myosin light chain mRNA) is reported as 3.0 fold, the “Fold-change in mRNA levels following cadmium exposure, DDRT25” value [1] is reported as 3.9 fold and the “Fold-change in mRNA levels following cadmium exposure, DDRT25” value [2] is reported as 4.4 fold. The “Fold-change in mRNA levels following cadmium exposure, DDRT26” value [1] was 4.4 fold, the “Fold-change in mRNA levels following cadmium exposure, DDRT26” value [2] was 4.7 fold and the “Fold-change in mRNA levels following cadmium exposure, DDRT28” value [1] was 1.7 fold. The “Fold-change in mRNA levels following cadmium exposure, DDRT28” value [2] was 1.8 fold, the “Fold-change in mRNA levels following cadmium exposure, DDRT29” value [1] was 3.9 fold and the “Fold-change in mRNA levels following cadmium exposure, DDRT29” value [2] was 4.4 fold. The “Fold-change in mRNA levels following cadmium exposure, DDRT30” value [1] was 2.7 fold, the “Fold-change in mRNA levels following cadmium exposure, DDRT30” value [2] was 3.1 fold and the “Fold-change in mRNA levels following cadmium exposure, DDRT32” value [1] was 2.6 fold. For the same compound, the “Fold-change in mRNA levels following cadmium exposure, DDRT32” value [2] was 2.4 fold, the “Fold-change in mRNA levels following cadmium exposure, DDRT33D” value [1] was 3.1 fold and the “Fold-change in mRNA levels following cadmium exposure, DDRT33D” value [2] was 3.5 fold. The “Fold-change in mRNA levels following cadmium exposure, DDRT33U” value [1] was 3.0 fold, the “Fold-change in mRNA levels following cadmium exposure, DDRT33U” value [2] was 3.5 fold and the “Fold-change in mRNA levels following cadmium exposure, DDRT34” value [1] was 2.4 fold. For the same compound, the “Fold-change in mRNA levels following cadmium exposure, DDRT34” value [2] was 3.0 fold, the “Fold-change in mRNA levels following cadmium exposure, DDRT35” value [1] was 1.6 fold and the “Fold-change in mRNA levels following cadmium exposure, DDRT35” value [2] was 1.9 fold. The “Fold-change in mRNA levels following cadmium exposure, DDRT38” value (clone DDRT38, 24 hours, 100 μM CdCl2, relative to non-exposed, normalized to myosin light chain mRNA) was 1.8 fold, the “Fold-change in mRNA levels following cadmium exposure, DDRT40” value [1] was 1.9 fold and the “Fold-change in mRNA levels following cadmium exposure, DDRT40” value [2] was 2.3 fold. For the same compound, the “Fold-change in mRNA levels following cadmium exposure, DDRT41” value [1] was 2.2 fold, the “Fold-change in mRNA levels following cadmium exposure, DDRT41” value [2] was 2.1 fold and the “Fold-change in mRNA levels following cadmium exposure, DDRT48” value [1] was 2.1 fold. The “Fold-change in mRNA levels following cadmium exposure, DDRT48” value [2] was 2.6 fold, the “Fold-change in mRNA levels following cadmium exposure, DDRT50” value [1] was 2.2 fold and the “Fold-change in mRNA levels following cadmium exposure, DDRT50” value [2] was 2.2 fold. The “Fold-change in mRNA levels following cadmium exposure, VL3” value (clone VL3, 24 hours, 100 μM CdCl2, relative to non-exposed, normalized to myosin light chain mRNA) was 2.4 fold, the “Fold-change in mRNA levels following cadmium exposure, VL9” value [1] was −1.7 fold and the “Fold-change in mRNA levels following cadmium exposure, VL9” value [2] was −2.3 fold. The “Fold-change in mRNA levels following cadmium exposure, VL11” value [1] was 3.2 fold, the “Fold-change in mRNA levels following cadmium exposure, VL11” value [2] was 6.1 fold and the “Fold-change in mRNA levels following cadmium exposure, VL12” value (clone VL12 (mtl-1), 24 hours, 100 μM CdCl2, relative to non-exposed, normalized to myosin light chain mRNA) was 5.2 fold. The “Fold-change in mRNA levels following cadmium exposure, VL19” value [1] was 3.6 fold, the “Fold-change in mRNA levels following cadmium exposure, VL19” value [2] was 5.0 fold and the “Fold-change in mRNA levels following cadmium exposure, VL20” value [1] was 2.8 fold. The “Fold-change in mRNA levels following cadmium exposure, VL20” value [2] was 5.0 fold, the “Fold-change in mRNA levels following cadmium exposure, VL21” value [1] was 2.2 fold and the “Fold-change in mRNA levels following cadmium exposure, VL21” value [2] was 2.5 fold. The “decrease in level of expression, a single clone” value (following cadmium exposure) was ~2 fold, the “increase in steady-state level of expression, forty-eight of the clones” value (following cadmium exposure) was 2-6 fold and the “decrease in level of expression for VL9” value (in response to cadmium, time not stated) was ~2 fold.
